Assays:
[1] = target: human BRD4 first bromodomain (BDI_K57-E168) (Homo sapiens (Human), UniProt O60885); assay: TR-FRET bromodomain binding assay, BRD4 first bromodomain
[2] = target: human BRD4 second bromodomain (BDII_E352-M457) (Homo sapiens (Human), UniProt O60885); assay: TR-FRET bromodomain binding assay, BRD4 second bromodomain
[3] = tested on: breast cancer cell line MX-1; assay: MX-1 cell line proliferation assay; format: cell-based, human; details: Homo sapiens, MX1, 72 h; MX-1 cells, 3-day proliferation, Cell Titer Glo; read-out: Cellular proliferation: EC50
[4] = Human liver microsome stability assay; format: in vitro ADME; details: both sexes, human, microsomes, pH 7.4
[5] = Rat liver microsome stability assay; format: in vitro ADME; details: rat liver microsomes (male Sprague-Dawley), 0.5 μM test compound, pH 7.4, 37° C.; for half-life at 0.5 μM: 0.25 mg/mL microsomal protein, read-out: Stability in rat liver microsomes (t1/2 in minutes); for Stability in rat liver microsomes (t1/2 in minutes): […] microsomal protein

Row | Ki [1] [nM] | Ki [2] [nM] | EC50 [3] [nM] | half-life at 0.5 μM [4] [min] | half-life at 0.5 μM [5] [min] | Stability in rat liver microsomes (t1/2 in minutes) [5] [min] | SMILES
1 | 62.2 | 5.4 | 76.5 |  |  |  | CN1CCC(NC(=O)c2ccc(Oc3ccc(F)cc3F)c(-c3cn(C)c(=O)c4[nH]ccc34)c2)C1=O (stereo not drawn) [Example 53, 4-(2,4-difluorophenoxy)-3-(6-methyl-7-oxo-6,7-dihydro-1H-pyrrolo[2,3-c]pyridin-4-yl)-N-(1-methyl-2-oxopyrrolidin-3-yl)benzamide]
2 |  |  | 562 |  |  |  | Cn1cc(-c2cc(Cn3cccn3)ccc2Oc2ccccc2)c2cc[nH]c2c1=O [Example 30, 6-methyl-4-[2-phenoxy-5-(1H-pyrazol-1-ylmethyl)phenyl]-1,6-dihydro-7H-pyrrolo[2,3-c]pyridin-7-one]
3 |  |  | 309 |  |  |  | Cn1cc(-c2cc(C(=O)N3CCS(=O)(=O)CC3)ccc2Oc2ccc(F)cc2F)c2cc[nH]c2c1=O [Example 52, 4-{2-(2,4-difluorophenoxy)-5-[(1,1-dioxidothiomorpholin-4-yl)carbonyl]phenyl}-6-methyl-1,6-dihydro-7H-pyrrolo[2,3-c]pyridin-7-one]
4 |  |  | 32.4 |  |  |  | CN(C)S(=O)(=O)c1cnc(OC2CCOC2)c(-c2cn(C)c(=O)c3[nH]ccc23)c1 (stereo not drawn) [Example 110, N,N-dimethyl-5-(6-methyl-7-oxo-6,7-dihydro-1H-pyrrolo[2,3-c]pyridin-4-yl)-6-(tetrahydrofuran-3-yloxy)pyridine-3-sulfonamide]
5 | 148 | 257 |  | 16.8 | 25 |  | Cn1cc(-c2cc(NC(=O)CC(F)(F)F)ccc2Oc2ccc(F)cc2F)c2cc[nH]c2c1=O [Example 38, N-[4-(2,4-difluorophenoxy)-3-(6-methyl-7-oxo-6,7-dihydro-1H-pyrrolo[2,3-c]pyridin-4-yl)phenyl]-3,3,3-trifluoropropanamide]
6 | 2300 | 486 |  | 34 | 36 |  | COc1ccc(NC(=O)c2ccc(Oc3ccc(F)cc3F)c(-c3cn(C)c(=O)c4[nH]ccc34)c2)c(OC)n1 [Example 117, 4-(2,4-difluorophenoxy)-N-(2,6-dimethoxypyridin-3-yl)-3-(6-methyl-7-oxo-6,7-dihydro-1H-pyrrolo[2,3-c]pyridin-4-yl)benzamide]
7 |  |  | 887 |  |  |  | CN1CCN(CCNC(=O)c2cc3c(-c4cc(NS(C)(=O)=O)ccc4Oc4ccccc4)nn(C)c(=O)c3[nH]2)CC1 [Example 79, 6-methyl-N-[2-(4-methylpiperazin-1-yl)ethyl]-4-{5-[(methylsulfonyl)amino]-2-phenoxyphenyl}-7-oxo-6,7-dihydro-1H-pyrrolo[2,3-d]pyridazine-2-carboxamide]
8 |  |  | 295 |  |  |  | Cn1cc(-c2cc(S(C)(=O)=O)ccc2Oc2cc(C(F)(F)F)ccc2Cl)c2cc[nH]c2c1=O [Example 163, 4-{2-[2-chloro-5-(trifluoromethyl)phenoxy]-5-(methylsulfonyl)phenyl}-6-methyl-1,6-dihydro-7H-pyrrolo[2,3-c]pyridin-7-one]
9 | 25.8 | 17.8 |  |  |  |  | Cn1cc(-c2cc(S(C)(=O)=O)ccc2Oc2cccc3c2CCC3=O)c2cc[nH]c2c1=O [Example 175, 6-methyl-4-{5-(methylsulfonyl)-2-[(1-oxo-2,3-dihydro-1H-inden-4-yl)oxy]phenyl}-1,6-dihydro-7H-pyrrolo[2,3-c]pyridin-7-one]
10 |  |  | > 3000 |  |  |  | Cn1nc(-c2cc(NS(C)(=O)=O)ccc2Oc2ccccc2)c2cc(C(=O)O)[nH]c2c1=O [Example 77, 6-methyl-4-{5-[(methylsulfonyl)amino]-2-phenoxyphenyl}-7-oxo-6,7-dihydro-1H-pyrrolo[2,3-d]pyridazine-2-carboxylic acid]
11 | 112 | 124 |  | 9.7 | 8 |  | Cn1cc(-c2cc(NC(=O)C(C)(C)C)ccc2Oc2ccc(F)cc2F)c2cc[nH]c2c1=O [Example 39, N-[4-(2,4-difluorophenoxy)-3-(6-methyl-7-oxo-6,7-dihydro-1H-pyrrolo[2,3-c]pyridin-4-yl)phenyl]-2,2-dimethylpropanamide]
12 | 234 | 295 |  |  |  |  | Cn1cc(-c2cc(C(=O)NC3CCN(C(=O)OC(C)(C)C)CC3)ccc2Oc2ccc(F)cc2F)c2cc[nH]c2c1=O [Example 136, tert-butyl 4-{[4-(2,4-difluorophenoxy)-3-(6-methyl-7-oxo-6,7-dihydro-1H-pyrrolo[2,3-c]pyridin-4-yl)benzoyl]amino}piperidine-1-carboxylate]
13 | 30.4 | 23 |  | 34 | 55 |  | Cn1cc(-c2cc(S(C)(=O)=O)ccc2Oc2ccc(Cl)c(F)c2)c2cc[nH]c2c1=O [Example 189, 4-[2-(4-chloro-3-fluorophenoxy)-5-(methylsulfonyl)phenyl]-6-methyl-1,6-dihydro-7H-pyrrolo[2,3-c]pyridin-7-one]
14 | 105 | 89.1 |  |  |  |  | Cn1cc(-c2cc(C(=O)Nc3ncccn3)ccc2Oc2ccc(F)cc2F)c2cc[nH]c2c1=O [Example 116, 4-(2,4-difluorophenoxy)-3-(6-methyl-7-oxo-6,7-dihydro-1H-pyrrolo[2,3-c]pyridin-4-yl)-N-(pyrimidin-2-yl)benzamide]
15 | 183 | 174 |  |  |  |  | COc1cc(CNC(=O)c2ccc(Oc3ccc(F)cc3F)c(-c3cn(C)c(=O)c4[nH]ccc34)c2)cc(OC)c1OC [Example 130, 4-(2,4-difluorophenoxy)-3-(6-methyl-7-oxo-6,7-dihydro-1H-pyrrolo[2,3-c]pyridin-4-yl)-N-(3,4,5-trimethoxybenzyl)benzamide]
16 | 526 | 1130 |  |  |  |  | Cn1cc(-c2cc(C(F)(F)F)ccc2Oc2ccc(F)cc2F)c2cc[nH]c2c1=O [Example 275, 4-[2-(2,4-difluorophenoxy)-5-(trifluoromethyl)phenyl]-6-methyl-1,6-dihydro-7H-pyrrolo[2,3-c]pyridin-7-one]
17 | 238 | 344 |  |  |  |  | Cn1cc(-c2cc(C(=O)NCCc3ccc4c(c3)OCO4)ccc2Oc2ccc(F)cc2F)c2cc[nH]c2c1=O [Example 132, N-[2-(1,3-benzodioxol-5-yl)ethyl]-4-(2,4-difluorophenoxy)-3-(6-methyl-7-oxo-6,7-dihydro-1 H-pyrrolo[2,3-c]pyridin-4-yl)benzamide]
18 | 34.5 | 12.2 |  |  |  |  | Cn1cc(-c2cc(S(C)(=O)=O)ccc2Oc2cccc3ccccc23)c2cc[nH]c2c1=O [Example 185, 6-methyl-4-[5-(methylsulfonyl)-2-(naphthalen-1-yloxy)phenyl]-1,6-dihydro-7H-pyrrolo[2,3-c]pyridin-7-one]
19 |  |  | 113 |  |  | 1 | CCOC(=O)c1ccc(Oc2ccccc2)c(-c2cn(C)c(=O)c3[nH]ccc23)c1 [Example 9, ethyl 3-(6-methyl-7-oxo-6,7-dihydro-1H-pyrrolo[2,3-c]pyridin-4-yl)-4-phenoxybenzoate]
20 | 30.5 | 22.4 |  |  |  |  | Cn1cc(-c2cc(S(C)(=O)=O)ccc2Oc2ccc3c(c2)CCC3=O)c2cc[nH]c2c1=O [Example 181, 6-methyl-4-{5-(methylsulfonyl)-2-[(1-oxo-2,3-dihydro-1H-inden-5-yl)oxy]phenyl}-1,6-dihydro-7H-pyrrolo[2,3-c]pyridin-7-one]
21 | 19 | 9.7 |  |  |  |  | Cn1cc(-c2cc(S(C)(=O)=O)ccc2Oc2ccc3c(c2)C(=O)CC3)c2cc[nH]c2c1=O [Example 182, 6-methyl-4-{5-(methylsulfonyl)-2-[(3-oxo-2,3-dihydro-1H-inden-5-yl)oxy]phenyl}-1,6-dihydro-7H-pyrrolo[2,3-c]pyridin-7-one]
22 | 125 | 489 |  | > 120 | 25 |  | Cc1c(NS(C)(=O)=O)ccc(OCC2CC2)c1-c1cn(C)c(=O)c2[nH]ccc12 [Example 262, N-[4-(cyclopropylmethoxy)-2-methyl-3-(6-methyl-7-oxo-6,7-dihydro-1H-pyrrolo[2,3-c]pyridin-4-yl)phenyl]methanesulfonamide]
23 | 41.2 | 19.8 |  |  |  |  | Cn1cc(-c2cc(S(C)(=O)=O)ccc2Oc2ccccc2C#N)c2cc[nH]c2c1=O [Example 183, 2-[2-(6-methyl-7-oxo-6,7-dihydro-1H-pyrrolo[2,3-c]pyridin-4-yl)-4-(methylsulfonyl)phenoxy]benzonitrile]
24 |  |  | 78.8 |  |  |  | Cn1cc(-c2cc(S(C)(=O)=O)ccc2Oc2cccc(Cl)c2F)c2cc[nH]c2c1=O [Example 184, 4-[2-(3-chloro-2-fluorophenoxy)-5-(methylsulfonyl)phenyl]-6-methyl-1,6-dihydro-7H-pyrrolo[2,3-c]pyridin-7-one]
25 | 1100 | 3000 |  |  |  |  | Cc1cccc(OCC2CC2)c1-c1cn(C)c(=O)c2[nH]ccc12 [Example 247, 4-[2-(cyclopropylmethoxy)-6-methylphenyl]-6-methyl-1,6-dihydro-7H-pyrrolo[2,3-c]pyridin-7-one]
26 | 320 | 169 |  | 2 | 4 |  | COc1ccc2[nH]cc(CCNC(=O)c3ccc(Oc4ccc(F)cc4F)c(-c4cn(C)c(=O)c5[nH]ccc45)c3)c2c1 [Example 124, 4-(2,4-difluorophenoxy)-N-[2-(5-methoxy-1H-indol-3-yl)ethyl]-3-(6-methyl-7-oxo-6,7-dihydro-1H-pyrrolo[2,3-c]pyridin-4-yl)benzamide]
27 |  |  | 185 |  |  |  | Cn1cc(-c2cc(N)ccc2Oc2ccccc2)c2cc[nH]c2c1=O [Example 3, 4-(5-amino-2-phenoxyphenyl)-6-methyl-1,6-dihydro-7H-pyrrolo[2,3-c]pyridin-7-one]
28 | 5500 | 1020 |  | 13 |  | 1 | Cn1cc(-c2ccccc2Cc2ccccc2)c2cc[nH]c2c1=O [Example 195, 4-(2-benzylphenyl)-6-methyl-1,6-dihydro-7H-pyrrolo[2,3-c]pyridin-7-one]
